According to patent publication US6747033B2, “Fungicidal triazolopyrimid-7-ylideneamines” (BASF Aktiengesellschaft, priority 2000, dated 2004):
Where two headings read alike, the source gives them in different places.

What was measured:
[1] = tested on: Botrytis cinera; assay: In vivo fungicidal activity, Pepper Botrytis (PB); note: ranges in brackets are in %
[2] = tested on: Rhizoctonia solani; assay: In vitro fungicidal activity, Rice sheath blight (RHIZSO); assay type: cell-based; design: key: 0: None; 3: slight; 5: moderate; 7: severe; 9: complete; conditions: 3-7 days of incubation
Experimental: (§1) Test compounds are dissolved in acetone to give concentrations of 25, 10 and 1 ppm and are added to individual cell Walls (24-cell-well plates, Corning), which were previously filled with a suspension of ground plates, Corning), which were previously filled with a suspension of ground fungal mycelium in a chemically defined growth medium. After 3-7 days of incubation, inhibition of […] growth is recorded using the following scale: The data obtained are shown in Table II. [table]

[3] = tested on: Venturia inaequalis; assay: In vivo fungicidal activity, Apple Scab (AS); note: ranges in brackets are in %
[4] = tested on: Pythium ultimum; assay: In vitro fungicidal activity, Fruit rot (PYTHUL); assay type: cell-based; design: key: 0: None; 3: slight; 5: moderate; 7: severe; 9: complete; conditions: 3-7 days of incubation
Experimental: as §1

[5] = tested on: Alternara solani; assay: In vivo fungicidal activity, Tomato early blight (TEB); note: ranges in brackets are in %
[6] = tested on: Pseudocercosporella herpotrichoides; assay: In vitro fungicidal activity, Cereal eye spot (PSDCHE); assay type: cell-based; design: key: 0: None; 3: slight; 5: moderate; 7: severe; 9: complete; conditions: 3-7 days of incubation
Experimental: as §1

[7] = tested on: Plasmopara viticola; assay: In vivo fungicidal activity, Grape downy mildew (GDM); note: ranges in brackets are in %
[8] = tested on: Pyricularia grisea f. sp. oryzae; assay type: in vivo; conditions: Rice Blast
[9] = tested on: Blumeria graminis; assay: In vivo fungicidal activity, Wheat powdery mildew (WPM); note: ranges in brackets are in %

Row | Compound | PB disease control rating ([1]; 12.5 ppm spray) | PB disease control rating ([1]; 50 ppm spray) | PB disease control rating ([1]; 200 ppm spray) | RHIZSO inhibition of mycelial growth rating ([2]; 1 ppm) | RHIZSO inhibition of mycelial growth rating ([2]; 10 ppm) | AS disease control rating ([3]; 12.5 ppm spray) | AS disease control rating ([3]; 50 ppm spray) | AS disease control rating ([3]; 200 ppm spray) | TEB disease control rating ([5]; 12.5 ppm spray) | TEB disease control rating ([5]; 50 ppm spray) | TEB disease control rating ([5]; 200 ppm spray) | GDM disease control rating ([7]; 12.5 ppm spray) | GDM disease control rating ([7]; 50 ppm spray) | GDM disease control rating ([7]; 200 ppm spray) | RB disease control rating ([8]; 12.5 ppm spray) | RB disease control rating ([8]; 50 ppm spray) | RB disease control rating ([8]; 200 ppm spray) | WPM disease control rating ([9]; 12.5 ppm spray) | WPM disease control rating ([9]; 50 ppm spray) | WPM disease control rating ([9]; 200 ppm spray) | further results
1 | Cn1c(Cl)c(-c2c(F)cc(F)cc2F)c(=NCC(F)(F)F)n2ncnc12 [Example 8] | 0 (0) | 0 (0) | 0 (0) | 7 | 7 | 0 (0) | 0 (0) | 5 (60-74) | 2 (15-29) | 0 (0) | 0 (0) | 5 (60-74) | 4 (45-59) | 5 (60-74) | 0 (0) | 0 (0) | 4 (45-59) | 2 (15-29) | 4 (45-59) | 7 (90-95) | RHIZSO inhibition of mycelial growth rating ([2]; 25 ppm): 7; PYTHU inhibition of mycelial growth rating ([4]; 1 ppm): 0; PYTHU inhibition of mycelial growth rating ([4]; 10 ppm): 0; PYTHU inhibition of mycelial growth rating ([4]; 25 ppm): 0; PSDCH inhibition of mycelial growth rating ([6]; 1 ppm): 0; PSDCH inhibition of mycelial growth rating ([6]; 10 ppm): 0; PSDCH inhibition of mycelial growth rating ([6]; 25 ppm): 0
2 | CC(N=c1c(-c2c(F)cccc2F)c(Cl)n(C)c2ncnn12)C(F)(F)F (stereo not drawn) [Example 5] | 0 (0) | 0 (0) | 1 (1-14) | – | – | 0 (0) | 0 (0) | 0 (0) | 0 (0) | 0 (0) | 0 (0) | 6 (75-89) | 6 (75-89) | 5 (60-74) | 0 (0) | 0 (0) | 0 (0) | 0 (0) | 3 (30-44) | 6 (75-89) | –
3 | CC(N=c1c(-c2ccccc2Cl)c(Cl)nc2n(C)cnn12)C(F)(F)F (stereo not drawn) [Example 15] | 0 (0) | 0 (0) | 2 (15-29) | 0 | 0 | 0 (0) | 0 (0) | 0 (0) | 0 (0) | 0 (0) | 0 (0) | 2 (15-29) | 4 (45-59) | 6 (75-89) | 0 (0) | 0 (0) | 0 (0) | 0 (0) | 0 (0) | 3 (30-44) | RHIZSO inhibition of mycelial growth rating ([2]; 25 ppm): 3; PYTHU inhibition of mycelial growth rating ([4]; 1 ppm): 0; PYTHU inhibition of mycelial growth rating ([4]; 10 ppm): 0; PYTHU inhibition of mycelial growth rating ([4]; 25 ppm): 0; PSDCH inhibition of mycelial growth rating ([6]; 1 ppm): 0; PSDCH inhibition of mycelial growth rating ([6]; 10 ppm): 0; PSDCH inhibition of mycelial growth rating ([6]; 25 ppm): 0
4 | CC(N=c1c(-c2ccc(F)cc2F)c(Cl)n(C)c2ncnn12)C(F)(F)F (stereo not drawn) [Example 7] | 2 (15-29) | 0 (0) | 0 (0) | 5 | 5 | 0 (0) | 0 (0) | 6 (75-89) | 0 (0) | 0 (0) | 0 (0) | 0 (0) | 0 (0) | 8 (96-99) | 0 (0) | 0 (0) | 4 (45-59) | 0 (0) | 4 (45-59) | 6 (75-89) | RHIZSO inhibition of mycelial growth rating ([2]; 25 ppm): 5; PYTHU inhibition of mycelial growth rating ([4]; 1 ppm): 0; PYTHU inhibition of mycelial growth rating ([4]; 10 ppm): 0; PYTHU inhibition of mycelial growth rating ([4]; 25 ppm): 0; PSDCH inhibition of mycelial growth rating ([6]; 1 ppm): 0; PSDCH inhibition of mycelial growth rating ([6]; 10 ppm): 1; PSDCH inhibition of mycelial growth rating ([6]; 25 ppm): 0
5 | CC(N=c1c(-c2c(F)cccc2F)c(Cl)nc2n(C)cnn12)C(F)(F)F (stereo not drawn) [Example 14] | 0 (0) | 0 (0) | 0 (0) | – | – | 0 (0) | 0 (0) | 6 (75-89) | 0 (0) | 0 (0) | 0 (0) | 0 (0) | 4 (45-59) | 7 (90-95) | 0 (0) | 0 (0) | 0 (0) | 0 (0) | 0 (0) | 0 (0) | –
6 | COc1cc(F)c(-c2c(Cl)nc3n(C)cnn3c2=NC(C)C(F)(F)F)c(F)c1 (stereo not drawn) [Example 13] | 0 (0) | 0 (0) | 0 (0) | – | – | 0 (0) | 0 (0) | 0 (0) | 0 (0) | 0 (0) | 0 (0) | 0 (0) | 0 (0) | 0 (0) | 0 (0) | 0 (0) | 0 (0) | 0 (0) | 3 (30-44) | 5 (60-74) | –
7 | Cn1c(Cl)c(-c2c(F)cc(F)cc2F)c(=NCC(F)(F)F)n2ncnc12 [Example 17] | 0 (0) | 0 (0) | 0 (0) | 7 | 7 | 0 (0) | 2 (15-29) | 6 (75-89) | 0 (0) | 0 (0) | 0 (0) | 0 (0) | 0 (0) | 5 (60-74) | 0 (0) | 3 (30-44) | 4 (45-59) | 0 (0) | 2 (15-29) | 6 (75-89) | RHIZSO inhibition of mycelial growth rating ([2]; 25 ppm): 7; PYTHU inhibition of mycelial growth rating ([4]; 1 ppm): 0; PYTHU inhibition of mycelial growth rating ([4]; 10 ppm): 5; PYTHU inhibition of mycelial growth rating ([4]; 25 ppm): 7; PSDCH inhibition of mycelial growth rating ([6]; 1 ppm): 0; PSDCH inhibition of mycelial growth rating ([6]; 10 ppm): 1; PSDCH inhibition of mycelial growth rating ([6]; 25 ppm): 3
